Values joined by “and” are separate entries in the source; they are usually repeats but may differ in a detail not shown here. Equal entries are not always repeated. Inconclusive results and toxic doses are left out. Rule as the data show it: active = T/C of 150% or more; inactive = T/C below 125%.
Test system: L1210 leukemia ip in BDF1 mice, survival T/C
Test: NCI In Vivo Anticancer Drug Screen. Data for tumor model L1210 Leukemia (intraperitoneal) in B6D2F1 (BDF1) mice
Conditions: endpoint: mean survival time, higher = longer survival
Method in brief: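 Each compound was tested against a transplantable tumor grown in mice. The endpoint was survival, with treated animals benchmarked against vehicle controls as a simple ratio.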

[1] = dose: 100.0 mg/kg/injection, schedule: Q01DX001 (ip), vehicle: saline
[2] = dose: 200.0 mg/kg/injection, schedule: Q01DX001 (ip), vehicle: saline
[3] = dose: 200.0 mg/kg/injection, schedule: Q04DX002 (ip), vehicle: saline with Tween-80
[4] = dose: 400.0 mg/kg/injection, schedule: Q01DX001 (ip), vehicle: saline
[5] = dose: 50.0 mg/kg/injection, schedule: Q01DX009 (ip), vehicle: Klucel (hydroxypropylcellulose) (HPC)
[6] = dose: 100.0 mg/kg/injection, schedule: Q01DX009 (ip), vehicle: Klucel (hydroxypropylcellulose) (HPC)
[7] = dose: 100.0 mg/kg/injection, schedule: Q04DX003 (ip), vehicle: Klucel (hydroxypropylcellulose) (HPC)
[8] = dose: 100.0 mg/kg/injection, schedule: Q04DX003 (ip), vehicle: saline
[9] = dose: 200.0 mg/kg/injection, schedule: Q04DX003 (ip), vehicle: saline
[10] = dose: 400.0 mg/kg/injection, schedule: Q04DX003 (ip), vehicle: saline

Measured: T/C

O=C(Nc1ccc(/C=C/c2ccc(NC(=O)Nc3cccc(C4=NCCN4)c3)cc2)cc1)Nc1cccc(C2=NCCN2)c1
inactive: dose: 3.75 mg/kg/injection, schedule: Q01DX Z (ip), vehicle: carboxymethylcellulose (CMC) 93 % of control | dose: 7.5 mg/kg/injection, schedule: Q01DX Z (ip), vehicle: carboxymethylcellulose (CMC) 98 % of control | dose: 15.0 mg/kg/injection, schedule: Q01DX Z (ip), vehicle: carboxymethylcellulose (CMC) 96 % of control | dose: 50.0 mg/kg/injection, schedule: Q01DX Z (ip), vehicle: carboxymethylcellulose (CMC) 103 % of control | dose: 100.0 mg/kg/injection, schedule: Q01DX Z (ip), vehicle: carboxymethylcellulose (CMC) 102 % of control | dose: 200.0 mg/kg/injection, schedule: Q01DX Z (ip), vehicle: carboxymethylcellulose (CMC) 97 % of control

CN(Cc1ccccc1)c1ccc(SC#N)cc1
inactive: [1] 98 % of control | [2] 104 % of control

CCCN(CCC)S(=O)(=O)CC
inactive: dose: 100.0 mg/kg/injection, schedule: Q04DX002 (ip), vehicle: saline with Tween-80 99 % of control | [3] 92 % of control | dose: 400.0 mg/kg/injection, schedule: Q04DX002 (ip), vehicle: saline with Tween-80 99 % of control

CCOC(=O)c1cnc(NCC(C)(C)C)[nH]c1=O
inactive: [1] 95 % of control | [2] 91 % of control | [4] 91 % of control

Cc1cccc(Sc2cccc3c2C(C)(O)c2c(Sc4cccc(C)c4)cccc2C3(C)O)c1 (stereo not drawn)
inactive: dose: 100.0 mg/kg/injection, schedule: Q04DX003 (ip), vehicle: saline with Tween-80 96 % of control | dose: 200.0 mg/kg/injection, schedule: Q04DX003 (ip), vehicle: saline with Tween-80 95 % of control | dose: 400.0 mg/kg/injection, schedule: Q04DX003 (ip), vehicle: saline with Tween-80 96 % of control

CCOC(=O)N1CCN2C(=O)N(CC)CCC2C1 (stereo not drawn)
inactive: [1] 93 % of control | [2] 93 % of control | [4] 94 % of control

O=C(O)c1cc(O)c2c(c1)C(C1c3cc(C(=O)O)cc(O)c3C(=O)c3c(OC4OC(CO)C(O)C(O)C4O)cccc31)c1cccc(OC3OC(CO)C(O)C(O)C3O)c1C2=O (stereo not drawn)
inactive: [1] 98 % of control and 101 % of control | [2] 97 % of control | [4] 103 % of control and 106 % of control

CCCCCCCNC(=O)Nc1cccc(Cl)c1C
inactive: dose: 25.0 mg/kg/injection, schedule: Q04DX003 (ip), vehicle: Klucel (hydroxypropylcellulose) (HPC) 103 % of control | [5] 101 % of control | dose: 50.0 mg/kg/injection, schedule: Q04DX003 (ip), vehicle: Klucel (hydroxypropylcellulose) (HPC) 101 % of control | [6] 89 % of control | [7] 95 % of control and 101 % of control | dose: 200.0 mg/kg/injection, schedule: Q01DX009 (ip), vehicle: Klucel (hydroxypropylcellulose) (HPC) 93 % of control

CCNc1ccc(/C=C2\C=Cc3ccccc32)cc1
inactive: dose: 25.0 mg/kg/injection, schedule: Q01DX009 (ip), vehicle: Klucel (hydroxypropylcellulose) (HPC) 96 % of control | [5] 102 % of control | dose: 75.0 mg/kg/injection, schedule: Q01DX001 (ip), vehicle: olive oil, sesame oil, peanut oil 103 % of control | [6] 96 % of control | dose: 150.0 mg/kg/injection, schedule: Q01DX001 (ip), vehicle: olive oil, sesame oil, peanut oil 108 % of control

Nc1cc2ccncc2c2ccccc12
inactive: dose: 50.0 mg/kg/injection, schedule: Q01DX009 (ip), vehicle: saline sonified 98 % of control | dose: 100.0 mg/kg/injection, schedule: Q01DX009 (ip), vehicle: saline sonified 104 % of control | [7] 97 % of control | dose: 200.0 mg/kg/injection, schedule: Q01DX009 (ip), vehicle: saline sonified 106 % of control | dose: 200.0 mg/kg/injection, schedule: Q04DX003 (ip), vehicle: Klucel (hydroxypropylcellulose) (HPC) 108 % of control

CC1(C)NC(=O)N(CN2CCN(CN3C(=O)NC(C)(C)C3=O)CC2)C1=O
inactive: [8] 108 % of control | [9] 108 % of control | [10] 113 % of control

CCCCCCN1CCCC(OC(=O)N(C)C)C1 (stereo not drawn)
inactive: dose: 25.0 mg/kg/injection, schedule: Q04DX002 (ip), vehicle: saline 113 % of control | dose: 50.0 mg/kg/injection, schedule: Q04DX002 (ip), vehicle: saline 103 % of control | dose: 100.0 mg/kg/injection, schedule: Q04DX002 (ip), vehicle: saline 100 % of control and 104 % of control

COc1ccc(-n2nnnc2N)cc1
inactive: dose: 100.0 mg/kg/injection, schedule: Q01DX001 (ip), vehicle: Klucel (hydroxypropylcellulose) (HPC) 99 % of control | dose: 200.0 mg/kg/injection, schedule: Q01DX001 (ip), vehicle: Klucel (hydroxypropylcellulose) (HPC) 102 % of control | dose: 400.0 mg/kg/injection, schedule: Q01DX001 (ip), vehicle: Klucel (hydroxypropylcellulose) (HPC) 96 % of control

CCc1cc2c([nH]c3ccccc32)c(C)c1CCN(C)C
inactive: dose: 50.0 mg/kg/injection, schedule: Q01DX001 (ip), vehicle: other 101 % of control | dose: 100.0 mg/kg/injection, schedule: Q01DX001 (ip), vehicle: other 97 % of control | dose: 200.0 mg/kg/injection, schedule: Q01DX001 (ip), vehicle: other 95 % of control

COc1cc(-c2ccc(N)c(OC)c2)ccc1N
inactive: dose: 62.5 mg/kg/injection, schedule: Q01DX Z (ip), vehicle: saline 90 % of control | dose: 222.0 mg/kg/injection, schedule: Q01DX Z (ip), vehicle: methylcellulose (MC) 108 % of control | dose: 333.0 mg/kg/injection, schedule: Q01DX Z (ip), vehicle: methylcellulose (MC) 90 % of control

NCCSS(=O)(=O)CCN
inactive: dose: 100.0 mg/kg/injection, schedule: Q01DX009 (ip), vehicle: saline 105 % of control | [8] 106 % of control | dose: 200.0 mg/kg/injection, schedule: Q01DX009 (ip), vehicle: saline 107 % of control | [9] 107 % of control | dose: 400.0 mg/kg/injection, schedule: Q01DX009 (ip), vehicle: saline 100 % of control | [10] 100 % of control

Cc1ccc(C(C)(C)CP(c2ccccc2)c2ccccc2)cc1
inactive: dose: 25.0 mg/kg/injection, schedule: Q04DX002 (ip), vehicle: saline with Tween-80 95 % of control | dose: 50.0 mg/kg/injection, schedule: Q04DX002 (ip), vehicle: saline with Tween-80 92 % of control | [3] 89 % of control

Reference: PubChem BioAssay AID248 (DTP/NCI, 2004)
